Experiments:
[1] = animal models; cited from earlier work
[2] = compared with S-baclofen; cited from earlier work
[3] = Excipient solubility in HPLC method diluent; format: physicochemical; conditions: approximately 1 to 2 mg/mL

Row | Compound | Completely Soluble in 85% 50 mM Potassium Phosphate, pH 3.0, 15% ACN [3] | further results
1 | NCC(CC(=O)O)c1ccc(Cl)cc1 (racemic) [Baclofen, (±)-4-Amino-3-(4-chlorophenyl) butanoic acid] |  | absorption following administration into the colon [1]: poorly absorbed
2 | NC[C@H](CC(=O)O)c1ccc(Cl)cc1 (single isomer, unassigned) [R-baclofen] |  | potency in reducing obsessive-compulsive and repetitive behavior and audiogenic seizures [2]: more potent than S-baclofen

Now from value to compound, other results behind:

Row | Completely Soluble in 85% 50 mM Potassium Phosphate, pH 3.0, 15% ACN [3] | Compound | further results
3 | Yes | OC[C@@H](O)[C@@H](O)[C@H](O)[C@H](O)CO [Pearlitol 300DC, Mannitol] | 
4 | No | CCCCCCCCCCCCCCCCCCOC(=O)/C=C/C(=O)[O-].[Na+] [Pruv, Sodium Stearyl Fumarate] | 
5 | Yes | OC[C@H]1O[C@H](O[C@]2(CCl)O[C@H](CCl)[C@@H](O)[C@@H]2O)[C@H](O)[C@@H](O)[C@H]1Cl [Sucralose] | 
